# Results published in publication PMC12420824, “Discovery of a selective alpha-kinase 1 inhibitor for the rare genetic disease ROSAH syndrome” (Nature Communications, 2025).
# Assays:
# LCK = LCK (Homo sapiens, UniProt P06239); assay: HotSpot kinase assay; settings: read-out: % Enzyme Activity (relative to DMSO control), 10 uM
# From the text: (§1) Additionally, a 10-dose dilution series of staurosporine and other enzyme-appropriate compounds were included as positive control inhibitors.
# MLCK/MYLK = MLCK/MYLK (Homo sapiens, UniProt Q15746); assay: HotSpot kinase assay; settings: read-out: % Enzyme Activity (relative to DMSO control), 10 uM
# From the text: as §1
# FGFR1 = FGFR1 (Homo sapiens, UniProt P11362); assay: HotSpot kinase assay; settings: read-out: % Enzyme Activity (relative to DMSO control), 10 uM
# From the text: as §1
# DYRK4 = DYRK4 (Homo sapiens, UniProt Q9NR20); assay: HotSpot kinase assay; settings: read-out: % Enzyme Activity (relative to DMSO control), 10 uM
# RIPK2 = RIPK2 (Homo sapiens, UniProt O43353); assay: HotSpot kinase assay; settings: read-out: % Enzyme Activity (relative to DMSO control), 10 uM
# DMPK = DMPK (Homo sapiens, UniProt Q09013); assay: HotSpot kinase assay; settings: read-out: % Enzyme Activity (relative to DMSO control), 10 uM
# From the text: as §1
# P38b/MAPK11 = P38b/MAPK11 (Homo sapiens, UniProt Q15759); assay: HotSpot kinase assay; settings: read-out: % Enzyme Activity (relative to DMSO control), 10 uM
# NEK7 = NEK7 (Homo sapiens, UniProt Q8TDX7); assay: HotSpot kinase assay; settings: read-out: % Enzyme Activity (relative to DMSO control), 10 uM
# From the text: as §1
# c-MER = c-MER (Homo sapiens, UniProt Q12866); assay: HotSpot kinase assay; settings: read-out: % Enzyme Activity (relative to DMSO control), 10 uM
# From the text: as §1
# MARK2/PAR-1Ba = MARK2/PAR-1Ba (Homo sapiens, UniProt Q7KZI7); assay: HotSpot kinase assay; settings: read-out: % Enzyme Activity (relative to DMSO control), 10 uM
# RAF1 = RAF1 (Homo sapiens, UniProt P04049); assay: HotSpot kinase assay; settings: read-out: % Enzyme Activity (relative to DMSO control), 10 uM
# DCAMKL2 = DCAMKL2 (Homo sapiens, UniProt Q8N568); assay: HotSpot kinase assay; settings: read-out: % Enzyme Activity (relative to DMSO control), 10 uM
# KSR1 = KSR1 (Homo sapiens, UniProt Q8IVT5); assay: HotSpot kinase assay; settings: read-out: % Enzyme Activity (relative to DMSO control), 10 uM
# From the text: as §1
# CK2a = CK2a (Homo sapiens, UniProt P68400); assay: HotSpot kinase assay; settings: read-out: % Enzyme Activity (relative to DMSO control), 10 uM
# From the text: as §1
# CDK6/cyclin D1 = CDK6/cyclin D1 (Homo sapiens, UniProt Q00534); assay: HotSpot kinase assay; settings: read-out: % Enzyme Activity (relative to DMSO control), 10 uM
# From the text: as §1
# CDK14/cyclin Y (PFTK1) = CDK14/cyclin Y (PFTK1) (Homo sapiens, UniProt O94921); assay: HotSpot kinase assay; settings: read-out: % Enzyme Activity (relative to DMSO control), 10 uM
# From the text: as §1
# JNK1 = JNK1 (Homo sapiens, UniProt P45983); assay: HotSpot kinase assay; settings: read-out: % Enzyme Activity (relative to DMSO control), 10 uM
# From the text: as §1
# CDK1/cyclin B = CDK1/cyclin B (Homo sapiens, UniProt P06493); assay: HotSpot kinase assay; settings: read-out: % Enzyme Activity (relative to DMSO control), 10 uM
# GRK5 = GRK5 (Homo sapiens, UniProt P34947); assay: HotSpot kinase assay; settings: read-out: % Enzyme Activity (relative to DMSO control), 10 uM
# TEC = TEC (Homo sapiens, UniProt P42680); assay: HotSpot kinase assay; settings: read-out: % Enzyme Activity (relative to DMSO control), 10 uM
# From the text: as §1
# FLT1/VEGFR1 = FLT1/VEGFR1 (Homo sapiens, UniProt P17948); assay: HotSpot kinase assay; settings: read-out: % Enzyme Activity (relative to DMSO control), 10 uM
# From the text: as §1
# RIPK4 = RIPK4 (Homo sapiens, UniProt P57078); assay: HotSpot kinase assay; settings: read-out: % Enzyme Activity (relative to DMSO control), 10 uM
# From the text: as §1
# OSR1/OXSR1 = OSR1/OXSR1 (Homo sapiens, UniProt O95747); assay: HotSpot kinase assay; settings: read-out: % Enzyme Activity (relative to DMSO control), 10 uM
# From the text: as §1
# AMPK (A1/B2/G3) = AMPK (A1/B2/G3) (Homo sapiens, UniProt Q13131); assay: HotSpot kinase assay; settings: read-out: % Enzyme Activity (relative to DMSO control), 10 uM
# [1] = 28 day GLP toxicology study; format: in vivo; settings: rats
# CDK2/cyclin O = CDK2/cyclin O (Homo sapiens, UniProt P24941); assay: HotSpot kinase assay; settings: read-out: % Enzyme Activity (relative to DMSO control), 10 uM
# JAK3 = JAK3 (Homo sapiens, UniProt P52333); assay: HotSpot kinase assay; settings: read-out: % Enzyme Activity (relative to DMSO control), 10 uM
# CDK3/cyclin E2 = CDK3/cyclin E2 (Homo sapiens, UniProt Q00526); assay: HotSpot kinase assay; settings: read-out: % Enzyme Activity (relative to DMSO control), 10 uM
# ROCK1 = ROCK1 (Homo sapiens, UniProt Q13464); assay: HotSpot kinase assay; settings: read-out: % Enzyme Activity (relative to DMSO control), 10 uM
# From the text: as §1
# TNK1 = TNK1 (Homo sapiens, UniProt Q13470); assay: HotSpot kinase assay; settings: read-out: % Enzyme Activity (relative to DMSO control), 10 uM
# From the text: as §1
# TESK2 = TESK2 (Homo sapiens, UniProt Q96S53); assay: HotSpot kinase assay; settings: read-out: % Enzyme Activity (relative to DMSO control), 10 uM
# FRK/PTK5 = FRK/PTK5 (Homo sapiens, UniProt P42685); assay: HotSpot kinase assay; settings: read-out: % Enzyme Activity (relative to DMSO control), 10 uM
# From the text: as §1
# DDR1 = DDR1 (Homo sapiens, UniProt Q08345); assay: HotSpot kinase assay; settings: read-out: % Enzyme Activity (relative to DMSO control), 10 uM
# From the text: as §1
# LIMK1 = LIMK1 (Homo sapiens, UniProt P53667); assay: HotSpot kinase assay; settings: read-out: % Enzyme Activity (relative to DMSO control), 10 uM
# NEK5 = NEK5 (Homo sapiens, UniProt Q6P3R8); assay: HotSpot kinase assay; settings: read-out: % Enzyme Activity (relative to DMSO control), 10 uM
# From the text: as §1
# EGFR = EGFR (Homo sapiens, UniProt P00533); assay: HotSpot kinase assay; settings: read-out: % Enzyme Activity (relative to DMSO control), 10 uM
# From the text: as §1
# MSK1/RPS6KA5 = MSK1/RPS6KA5 (Homo sapiens, UniProt O75582); assay: HotSpot kinase assay; settings: read-out: % Enzyme Activity (relative to DMSO control), 10 uM
# From the text: as §1
# [2] = tested on: HEK-293 cells stably overexpressing ALPK1; assay: CXCL10, TNF, CXCL8 mRNA (qPCR); settings: 30 h
# p70S6K/RPS6KB1 = p70S6K/RPS6KB1 (Homo sapiens, UniProt P23443); assay: HotSpot kinase assay; settings: read-out: % Enzyme Activity (relative to DMSO control), 10 uM
# Sequence of AMPK (A1/B2/G3) (Q13131 whole entry): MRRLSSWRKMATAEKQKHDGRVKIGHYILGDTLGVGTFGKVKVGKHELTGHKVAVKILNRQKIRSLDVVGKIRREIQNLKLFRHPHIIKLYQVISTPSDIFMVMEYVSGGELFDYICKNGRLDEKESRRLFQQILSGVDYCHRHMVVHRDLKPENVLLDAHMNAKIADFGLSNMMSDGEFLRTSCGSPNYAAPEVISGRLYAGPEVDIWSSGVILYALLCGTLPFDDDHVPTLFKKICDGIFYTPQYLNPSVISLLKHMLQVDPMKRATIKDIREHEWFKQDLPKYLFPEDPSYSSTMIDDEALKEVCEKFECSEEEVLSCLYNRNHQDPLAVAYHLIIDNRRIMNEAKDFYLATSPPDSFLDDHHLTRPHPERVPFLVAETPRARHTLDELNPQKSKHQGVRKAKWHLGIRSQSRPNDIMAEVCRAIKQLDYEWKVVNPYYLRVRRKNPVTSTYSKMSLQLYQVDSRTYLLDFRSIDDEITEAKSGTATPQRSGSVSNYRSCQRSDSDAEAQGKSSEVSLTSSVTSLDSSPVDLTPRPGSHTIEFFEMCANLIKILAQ
# Sequence of AMPK (A1/B2/G3) (O43741 whole entry partner): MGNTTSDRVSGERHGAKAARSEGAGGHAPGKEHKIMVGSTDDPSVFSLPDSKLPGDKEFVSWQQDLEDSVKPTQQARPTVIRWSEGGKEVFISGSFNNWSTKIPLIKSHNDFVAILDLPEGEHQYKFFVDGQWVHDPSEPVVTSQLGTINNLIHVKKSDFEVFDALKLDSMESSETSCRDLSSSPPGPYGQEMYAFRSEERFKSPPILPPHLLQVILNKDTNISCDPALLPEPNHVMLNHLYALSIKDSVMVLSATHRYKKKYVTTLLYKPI
# Sequence of AMPK (A1/B2/G3) (Q9UGI9 whole entry partner): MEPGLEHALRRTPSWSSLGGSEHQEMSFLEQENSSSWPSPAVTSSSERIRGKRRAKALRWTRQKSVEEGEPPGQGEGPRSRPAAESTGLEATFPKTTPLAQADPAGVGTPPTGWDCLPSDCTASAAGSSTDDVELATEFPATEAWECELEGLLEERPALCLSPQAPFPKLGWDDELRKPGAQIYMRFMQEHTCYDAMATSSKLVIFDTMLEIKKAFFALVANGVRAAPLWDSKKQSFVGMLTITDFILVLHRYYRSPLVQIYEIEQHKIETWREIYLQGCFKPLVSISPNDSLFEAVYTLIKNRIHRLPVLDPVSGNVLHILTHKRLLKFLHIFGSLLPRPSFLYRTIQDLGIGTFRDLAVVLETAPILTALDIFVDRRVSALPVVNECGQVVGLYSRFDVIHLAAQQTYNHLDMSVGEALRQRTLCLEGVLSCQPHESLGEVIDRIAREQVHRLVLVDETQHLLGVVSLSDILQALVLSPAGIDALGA
# Sequence of NEK5 (Q6P3R8 whole entry): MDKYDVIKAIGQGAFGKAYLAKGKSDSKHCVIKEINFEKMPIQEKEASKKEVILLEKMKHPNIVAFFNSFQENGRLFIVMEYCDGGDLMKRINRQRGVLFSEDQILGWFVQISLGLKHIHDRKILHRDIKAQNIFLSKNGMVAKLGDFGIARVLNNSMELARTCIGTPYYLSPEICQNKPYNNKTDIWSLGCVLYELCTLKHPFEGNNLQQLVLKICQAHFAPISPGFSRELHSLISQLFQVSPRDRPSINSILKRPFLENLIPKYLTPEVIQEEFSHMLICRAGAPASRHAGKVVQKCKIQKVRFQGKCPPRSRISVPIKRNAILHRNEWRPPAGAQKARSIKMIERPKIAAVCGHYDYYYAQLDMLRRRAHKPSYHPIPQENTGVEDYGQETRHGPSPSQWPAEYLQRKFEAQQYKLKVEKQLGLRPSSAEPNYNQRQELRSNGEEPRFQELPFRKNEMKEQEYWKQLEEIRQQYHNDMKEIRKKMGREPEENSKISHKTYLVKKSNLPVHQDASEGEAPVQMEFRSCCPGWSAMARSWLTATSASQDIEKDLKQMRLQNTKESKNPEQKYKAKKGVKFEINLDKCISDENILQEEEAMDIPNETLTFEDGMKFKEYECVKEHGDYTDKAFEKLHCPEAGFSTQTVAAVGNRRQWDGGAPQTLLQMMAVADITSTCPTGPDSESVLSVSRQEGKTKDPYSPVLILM
# Sequence of OSR1/OXSR1 (O95747 whole entry): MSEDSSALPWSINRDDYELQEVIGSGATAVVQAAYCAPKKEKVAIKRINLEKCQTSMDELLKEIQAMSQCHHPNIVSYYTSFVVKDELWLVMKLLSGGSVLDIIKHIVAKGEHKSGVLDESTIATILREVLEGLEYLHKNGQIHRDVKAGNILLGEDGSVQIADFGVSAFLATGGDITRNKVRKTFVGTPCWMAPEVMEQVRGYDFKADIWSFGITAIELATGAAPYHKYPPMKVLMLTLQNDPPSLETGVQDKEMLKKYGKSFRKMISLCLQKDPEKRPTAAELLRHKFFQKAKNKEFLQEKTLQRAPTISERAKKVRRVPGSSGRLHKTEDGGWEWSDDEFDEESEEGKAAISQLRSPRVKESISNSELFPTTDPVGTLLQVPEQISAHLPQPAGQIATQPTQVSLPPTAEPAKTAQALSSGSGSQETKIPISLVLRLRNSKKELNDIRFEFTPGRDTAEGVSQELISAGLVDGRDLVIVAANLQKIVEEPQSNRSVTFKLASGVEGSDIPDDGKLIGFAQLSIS
# Sequence of FGFR1 (P11362 22-822): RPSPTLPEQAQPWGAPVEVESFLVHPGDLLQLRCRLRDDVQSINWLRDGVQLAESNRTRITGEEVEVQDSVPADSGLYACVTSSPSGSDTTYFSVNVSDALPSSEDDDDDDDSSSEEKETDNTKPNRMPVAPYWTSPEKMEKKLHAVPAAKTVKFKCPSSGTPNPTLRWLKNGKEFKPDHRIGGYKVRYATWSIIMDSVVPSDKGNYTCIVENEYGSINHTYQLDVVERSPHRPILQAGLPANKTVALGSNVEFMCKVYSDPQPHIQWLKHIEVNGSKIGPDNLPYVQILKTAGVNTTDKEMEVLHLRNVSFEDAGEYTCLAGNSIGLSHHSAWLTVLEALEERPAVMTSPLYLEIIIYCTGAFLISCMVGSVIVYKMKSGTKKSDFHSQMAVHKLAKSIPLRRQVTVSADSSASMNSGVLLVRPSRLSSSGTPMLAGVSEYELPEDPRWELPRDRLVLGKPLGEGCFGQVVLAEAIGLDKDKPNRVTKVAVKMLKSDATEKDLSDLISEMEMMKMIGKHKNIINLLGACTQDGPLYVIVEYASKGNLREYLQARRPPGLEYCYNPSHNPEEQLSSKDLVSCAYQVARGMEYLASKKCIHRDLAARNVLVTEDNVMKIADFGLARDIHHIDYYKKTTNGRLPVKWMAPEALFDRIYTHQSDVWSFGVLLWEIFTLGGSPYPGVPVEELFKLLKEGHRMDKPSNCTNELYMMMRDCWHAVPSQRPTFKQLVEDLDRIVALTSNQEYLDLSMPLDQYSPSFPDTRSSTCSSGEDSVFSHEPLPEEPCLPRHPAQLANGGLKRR
# Sequence of P38b/MAPK11 (Q15759 whole entry): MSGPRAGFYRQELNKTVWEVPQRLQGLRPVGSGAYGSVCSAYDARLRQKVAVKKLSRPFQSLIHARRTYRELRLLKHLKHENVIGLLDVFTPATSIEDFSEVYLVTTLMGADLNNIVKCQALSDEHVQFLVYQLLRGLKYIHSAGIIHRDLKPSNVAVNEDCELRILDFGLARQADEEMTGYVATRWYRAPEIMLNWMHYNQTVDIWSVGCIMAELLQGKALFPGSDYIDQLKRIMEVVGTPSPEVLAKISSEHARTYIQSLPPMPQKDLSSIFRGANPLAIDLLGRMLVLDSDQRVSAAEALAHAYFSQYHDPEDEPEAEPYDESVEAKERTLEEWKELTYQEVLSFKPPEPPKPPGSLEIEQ
# Sequence of DYRK4 (Q9NR20 whole entry): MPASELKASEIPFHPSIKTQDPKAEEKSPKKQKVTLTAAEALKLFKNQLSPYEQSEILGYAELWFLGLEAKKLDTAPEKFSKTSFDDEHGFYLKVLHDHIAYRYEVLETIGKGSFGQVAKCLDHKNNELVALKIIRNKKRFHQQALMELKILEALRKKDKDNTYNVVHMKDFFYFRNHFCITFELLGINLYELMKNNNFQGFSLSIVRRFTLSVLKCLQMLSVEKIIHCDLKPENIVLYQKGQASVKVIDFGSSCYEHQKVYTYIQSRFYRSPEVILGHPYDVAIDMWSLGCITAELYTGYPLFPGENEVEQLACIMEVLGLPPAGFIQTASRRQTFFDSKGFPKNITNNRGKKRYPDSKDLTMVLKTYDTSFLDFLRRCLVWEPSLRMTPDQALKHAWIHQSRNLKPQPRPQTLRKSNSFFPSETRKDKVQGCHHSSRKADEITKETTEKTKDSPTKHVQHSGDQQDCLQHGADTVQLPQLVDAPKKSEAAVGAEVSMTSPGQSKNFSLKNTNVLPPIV
# Sequence of DMPK (Q09013 whole entry): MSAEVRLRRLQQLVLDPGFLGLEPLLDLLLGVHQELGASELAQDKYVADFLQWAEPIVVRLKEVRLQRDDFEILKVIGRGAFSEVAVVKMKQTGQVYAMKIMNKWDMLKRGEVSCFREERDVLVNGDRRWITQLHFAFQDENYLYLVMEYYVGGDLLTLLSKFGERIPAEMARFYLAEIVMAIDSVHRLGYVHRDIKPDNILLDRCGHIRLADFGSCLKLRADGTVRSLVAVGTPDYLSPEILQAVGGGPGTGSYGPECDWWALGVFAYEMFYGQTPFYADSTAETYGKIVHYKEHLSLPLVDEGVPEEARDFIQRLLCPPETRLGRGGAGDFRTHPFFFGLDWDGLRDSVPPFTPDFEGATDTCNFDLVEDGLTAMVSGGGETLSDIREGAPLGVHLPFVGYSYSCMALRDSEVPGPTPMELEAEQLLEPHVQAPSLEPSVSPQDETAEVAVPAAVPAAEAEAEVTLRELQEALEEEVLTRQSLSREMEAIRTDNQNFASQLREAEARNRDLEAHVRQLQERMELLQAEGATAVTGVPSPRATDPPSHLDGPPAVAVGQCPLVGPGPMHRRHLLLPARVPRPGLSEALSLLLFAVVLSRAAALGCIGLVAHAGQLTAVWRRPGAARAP
smiles,measurement,setting,value
C#C[C@@](C)(c1ccc(Cl)cc1)c1csc(NC(=O)c2c(F)cc(N3CCNCC3)cc2F)n1 (stereo in doubt) [DF-003],remaining activity at 10 µM,LCK,121%
same,remaining activity at 10 µM,MLCK/MYLK,68.4%
same,remaining activity at 10 µM,FGFR1,68.8%
same,remaining activity at 10 µM,DYRK4,104%
same,remaining activity at 10 µM,RIPK2,125%
same,remaining activity at 10 µM,DMPK,94.6%
same,remaining activity at 10 µM,P38b/MAPK11,95.4%
same,remaining activity at 10 µM,NEK7,118%
same,remaining activity at 10 µM,c-MER,89.5%
same,remaining activity at 10 µM,MARK2/PAR-1Ba,91.2%
same,remaining activity at 10 µM,RAF1,94.2%
same,remaining activity at 10 µM,DCAMKL2,68.8%
same,remaining activity at 10 µM,KSR1,91.5%
same,remaining activity at 10 µM,CK2a,101%
same,remaining activity at 10 µM,CDK6/cyclin D1,99.8%
same,remaining activity at 10 µM,CDK14/cyclin Y (PFTK1),98.8%
same,remaining activity at 10 µM,JNK1,97.7%
same,remaining activity at 10 µM,CDK1/cyclin B,99.5%
same,remaining activity at 10 µM,GRK5,117%
same,remaining activity at 10 µM,TEC,104%
same,remaining activity at 10 µM,FLT1/VEGFR1,79.2%
same,remaining activity at 10 µM,RIPK4,48.3%
same,remaining activity at 10 µM,OSR1/OXSR1,48.8%
same,remaining activity at 10 µM,AMPK (A1/B2/G3),82.6%
same,general immunosuppression,[1],no general immunosuppression was observed
same,remaining activity at 10 µM,CDK2/cyclin O,103%
same,remaining activity at 10 µM,JAK3,98.8%
same,remaining activity at 10 µM,CDK3/cyclin E2,103%
same,remaining activity at 10 µM,ROCK1,94.8%
same,remaining activity at 10 µM,TNK1,100%
same,remaining activity at 10 µM,TESK2,81.8%
same,remaining activity at 10 µM,FRK/PTK5,101%
same,remaining activity at 10 µM,DDR1,85.1%
same,remaining activity at 10 µM,LIMK1,98.3%
same,remaining activity at 10 µM,NEK5,83.4%
same,remaining activity at 10 µM,EGFR,93.7%
same,remaining activity at 10 µM,MSK1/RPS6KA5,57.8%
same,"impact on basal expression of TNF, CXCL10, CXCL8",[2],no impact
same,remaining activity at 10 µM,p70S6K/RPS6KB1,69.6%
